Measurements from patent US12091411B2, “IRAK degraders and uses thereof” (Kymera Therapeutics, Inc., priority 2022, dated 2024).
Where two headings read alike, the source gives them in different places.

Molecular target: T1, IRAK4 (Homo sapiens, UniProt Q9NWZ3)
T1 construct: Degradation of IRAK4 in OCI-LY10 was quantitatively measured using Meso Scale Discovery technology; endogenous in cells; host or cells: OCI-LY10
T1 sequence (Q9NWZ3 1-460): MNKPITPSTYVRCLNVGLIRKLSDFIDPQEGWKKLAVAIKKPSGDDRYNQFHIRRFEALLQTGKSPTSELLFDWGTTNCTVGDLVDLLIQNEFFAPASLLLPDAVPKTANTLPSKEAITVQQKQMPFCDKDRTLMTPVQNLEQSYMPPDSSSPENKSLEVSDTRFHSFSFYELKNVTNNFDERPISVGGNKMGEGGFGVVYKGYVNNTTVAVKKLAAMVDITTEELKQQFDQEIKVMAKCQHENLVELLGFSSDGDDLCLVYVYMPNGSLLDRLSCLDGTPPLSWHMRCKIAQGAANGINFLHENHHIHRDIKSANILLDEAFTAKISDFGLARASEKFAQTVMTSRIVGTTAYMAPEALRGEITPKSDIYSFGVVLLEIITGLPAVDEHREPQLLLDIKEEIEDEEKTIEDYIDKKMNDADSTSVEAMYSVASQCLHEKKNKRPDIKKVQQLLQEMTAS
Assay: IRAK4 MSD Degradation in OCI-LY10
Type: cell-based
Details: OCI-LY10 cells, MSD
How it was run: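 OCI-LY10 cells exposed to 8-point 1:3 compound series (top 1 to 10 μM) for 4 to 24 h at 37 °C, 5% CO2. Lysate IRAK4 quantified by MSD sandwich immunoassay. DC50 from three-parameter logistic fit, binned A (<0.01 μM) to D (>0.2 μM or not tested).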

[1] = 4 hrs incubation, read-out: IRAK4 degradation in OCI-LY10 at 4 hrs: DC50
[2] = 24 hrs incubation, read-out: IRAK4 degradation in OCI-LY10 at 24 hrs: DC50

Structure (SMILES)	DC50 [1]	DC50 [2]
Cn1c(=O)n(C2CCC(=O)NC2=O)c2cccc(C#CCOC3CCN(C[C@H]4C[C@H](n5cc(NC(=O)c6cnn7ccc(N8C[C@H]9C[C@@H]8CO9)nc67)c(C(F)F)n5)C4)CC3)c21 (some centres unmarked) [I-28]	< 0.01 µM	> 0.2 µM
Cc1ccc(-c2nn([C@H]3CC[C@H](CN4CCC(OCC#Cc5cccc6c5n(C)c(=O)n6C5CCC(=O)NC5=O)CC4)CC3)cc2NC(=O)c2cnn3cccnc23)cc1 (some centres unmarked) [I-172]	> 0.2 µM	0.01 to 0.1 µM
COc1nn([C@H]2CC[C@H](CN3CC4CC3CN4c3cccc4c3n(C)c(=O)n4C3CCC(=O)NC3=O)CC2)cc1NC(=O)c1cnn2cc(N(C)C)cnc12 (some centres unmarked) [I-214]	> 0.2 µM	> 0.2 µM
Cc1cc2nn([C@H]3CC[C@H](CN4CCC(c5cccc6c5n(C)c(=O)n6C5CCC(=O)NC5=O)C(F)(F)C4)CC3)cc2cc1NC(=O)c1cccc(C(F)(F)F)n1 (some centres unmarked) [I-452]	> 0.2 µM	> 0.2 µM
CN(CC1CCN(c2cccc3c2n(C)c(=O)n3C2CCC(=O)NC2=O)CC1)c1ccc(-n2cc(NC(=O)c3cnn4cccnc34)c(C(F)F)n2)cc1 (centres unmarked) [I-373]	> 0.2 µM	> 0.2 µM
CN(C1CCN(c2cccc3c2n(C)c(=O)n3C2CCC(=O)NC2=O)CC1)[C@@H](C#N)[C@H]1CC[C@H](n2cc(NC(=O)c3cnn4cccnc34)c(C(F)F)n2)CC1 (some centres unmarked) [I-242]	> 0.2 µM	> 0.2 µM
Cn1c(=O)n(C2CCC(=O)NC2=O)c2cccc(OC3CC4(CCN(Cc5ccc(-n6cc(NC(=O)c7cnn8ccc(N9C[C@H]%10C[C@@H]9CO%10)nc78)c(C(F)F)n6)cc5)CC4)C3)c21 (some centres unmarked) [I-401]	> 0.2 µM	> 0.2 µM
CN(C[C@H]1CC[C@H](n2cc(CC(=O)c3cnn4ccc(N5CCC(C)(C)CC5)nc34)c(C(F)F)n2)CC1)C1CCN(c2cccc3c2n(C)c(=O)n3C2CCC(=O)NC2=O)CC1 (some centres unmarked) [I-270]	> 0.2 µM	0.01 to 0.1 µM
O=C1CCC(c2ccc(C#CCN3CCN(C[C@H]4CC[C@H](n5cc(NC(=O)c6cnn7ccc(N8C[C@H]9C[C@@H]8CO9)nc67)c(C(F)F)n5)CC4)CC3)cc2)C(=O)N1 (some centres unmarked) [I-437]	0.01 to 0.1 µM	> 0.2 µM
Cn1c(=O)n(C2CCC(=O)NC2=O)c2cccc(C#CCN3CCN(C[C@H]4CC[C@H](n5cc(NC(=O)c6cncc(C#N)c6)c(C(F)F)n5)CC4)CC3)c21 (some centres unmarked) [I-265]	> 0.2 µM	> 0.2 µM
Cn1c(=O)n([C@@H]2CCC(=O)NC2=O)c2cccc(C#CCN3CCN(C[C@H]4CC[C@H](n5cc(NC(=O)c6cnn7ccc(N8C[C@H]9C[C@@H]8CO9)nc67)c(C(F)F)n5)CC4)CC3)c21 (single isomer, unassigned) [I-71]	0.01 to 0.1 µM	> 0.2 µM
CN1CC2(CCN(c3ccn4ncc(C(=O)Nc5cn([C@H]6CC[C@H](CN7CCC(OCC#Cc8cccc9c8n(C)c(=O)n9C8CCC(=O)NC8=O)CC7)CC6)nc5C(F)F)c4n3)CC2)C1 (some centres unmarked) [I-306]	> 0.2 µM	> 0.2 µM
CN1CCC(c2ccn3ncc(C(=O)Nc4cn([C@H]5CC[C@H](CN6CCN(CC#Cc7cccc8c7n(C)c(=O)n8C7CCC(=O)NC7=O)CC6)CC5)nc4C(F)F)c3n2)C(F)(F)C1 (some centres unmarked) [I-413]	> 0.2 µM	> 0.2 µM
Cc1ccc(-c2nn([C@H]3CC[C@H](CN4CCC(OCC#Cc5cccc6c5n(C)c(=O)n6C5CCC(=O)NC5=O)CC4)CC3)cc2NC(=O)c2cncc(C#N)c2)nc1 (some centres unmarked) [I-268]	> 0.2 µM	> 0.2 µM
COc1cc2nn([C@H]3CC[C@H](CN4CCC5(CC4)CCN(c4cccc6c4n(C)c(=O)n6C4CCC(=O)NC4=O)CC5)CC3)cc2cc1NC(=O)c1cncc(S(C)(=O)=O)c1 (some centres unmarked) [I-151]	> 0.2 µM	> 0.2 µM
Cn1c(=O)n(C2CCC(=O)NC2=O)c2cccc(CN3CCN(C[C@H]4CC[C@H](n5cc(NC(=O)c6cnn7cccnc67)c(C(F)F)n5)CC4)CC3)c21 (some centres unmarked) [I-238]	> 0.2 µM	> 0.2 µM
Cn1c(=O)n(C2CCC(=O)NC2=O)c2cccc(CC[C@H]3CN(Cc4ccc(-n5cc(NC(=O)c6cnn7cccnc67)c(C(F)F)n5)cc4)CCO3)c21 (some centres unmarked) [I-388]	> 0.2 µM	> 0.2 µM
CC1CCN(c2ccn3ncc(C(=O)Nc4cn([C@H]5CC[C@H](CN6CCN(CC#Cc7cccc8c7n(C)c(=O)n8C7CCC(=O)NC7=O)CC6)CC5)nc4C(F)F)c3n2)CC1 (some centres unmarked) [I-282]	> 0.2 µM	0.01 to 0.1 µM
Cn1c(=O)n(C2CCC(=O)NC2=O)c2cccc(C#CCOC3CCN(C[C@H]4CC[C@H](n5cc(NC(=O)c6cnn7ccc(N8CCC9(CC8)COC9)nc67)c(C(F)F)n5)CC4)CC3)c21 (some centres unmarked) [I-305]	> 0.2 µM	> 0.2 µM
Cn1c(=O)n(C2CCC(=O)NC2=O)c2cccc(C#CCN3CCN(C[C@H]4CC[C@H](n5cc(NC(=O)c6cccc7ccc(N8CCC8)nc67)c(C(F)F)n5)CC4)CC3)c21 (some centres unmarked) [I-335]	> 0.2 µM	> 0.2 µM
Cn1c(=O)n(C2CCC(=O)NC2=O)c2cccc(N3CC[C@@H](CN4CCN(C[C@H]5CC[C@H](n6cc(NC(=O)c7cnn8ccc(N9C[C@H]%10C[C@@H]9CO%10)nc78)c(C(F)F)n6)CC5)CC4)C3)c21 (some centres unmarked) [I-363]	> 0.2 µM	> 0.2 µM

Next, values leading:

DC50 [1]	DC50 [2]	Structure (SMILES)
> 0.2 µM	> 0.2 µM	Cn1c(=O)n(C2CCC(=O)NC2=O)c2cccc(N3CCN([C@@H]4CCN(C[C@H]5CC[C@H](n6cc(NC(=O)c7cnn8ccc(N9CC%10(COC%10)C9)nc78)c(C(F)F)n6)CC5)CC4(F)F)CC3)c21 (some centres unmarked) [I-746]
> 0.2 µM	< 0.01 µM	Cn1c(=O)n(C2CCC(=O)NC2=O)c2cccc(N3CC(O[C@@H]4CCN(C[C@H]5CC[C@H](n6cc(NC(=O)c7cnn8ccc(N9C[C@H]%10C[C@@H]9CO%10)nc78)c(C(F)F)n6)CC5)C[C@@H]4F)C3)c21 (some centres unmarked) [I-581]
> 0.2 µM	> 0.2 µM	Cn1c(=O)n(C2CCC(=O)NC2=O)c2cccc(N3CC(F)(F)C34CN(C[C@H]3CC[C@H](n5cc6cc(NC(=O)c7cccc(C(F)(F)F)n7)c(C#N)cc6n5)CC3)C4)c21 (some centres unmarked) [I-564]
> 0.2 µM	< 0.01 µM	Cn1c(=O)n(C2CCC(=O)NC2=O)c2ccc(N3CC(CN4CCN(C[C@H]5CC[C@H](n6cc(NC(=O)c7cnn8ccc(N9C[C@H]%10C[C@@H]9CO%10)nc78)c(C(F)F)n6)CC5)CC4)C3)c(F)c21 (some centres unmarked) [I-724]
> 0.2 µM	< 0.01 µM	Cn1c(=O)n(C2CCC(=O)NC2=O)c2cccc(N3CC(O[C@@H]4CCN(C[C@H]5CC[C@H](n6cc(NC(=O)c7cnn8ccc(N9C[C@H]%10C[C@@H]9CO%10)nc78)c(C(F)F)n6)CC5)C[C@H]4F)C3)c21 (some centres unmarked) [I-732]
> 0.2 µM	< 0.01 µM	Cn1c(=O)n(C2CCC(=O)NC2=O)c2cccc([C@@H]3CCN(C[C@H]4CC[C@H](n5cc6cc(NC(=O)c7cccc(C(F)(F)F)n7)ncc6n5)CC4)C[C@H]3F)c21 (single isomer, unassigned) [I-656]
> 0.2 µM	> 0.2 µM	Cn1c(=O)n(C2CCC(=O)NC2=O)c2cccc(N3CC4(C3)N(C[C@H]3CC[C@H](n5cc6cc(NC(=O)c7cccc(C(F)(F)F)n7)ccc6n5)CC3)CC4(F)F)c21 (some centres unmarked) [I-500]
> 0.2 µM	> 0.2 µM	Cn1c(=O)n(C2CCC(=O)NC2=O)c2cccc(C3=CCN(C[C@H]4CC[C@H](n5cc6cc(NC(=O)c7cccc(C(F)(F)F)n7)c(C(F)F)cc6n5)CC4)CC3F)c21 (some centres unmarked) [I-459]
> 0.2 µM	> 0.2 µM	CN(c1cccc2c1n(C)c(=O)n2C1CCC(=O)NC1=O)C1CN(C[C@H]2CC[C@H](n3cc4cc(NC(=O)c5cccc(C(F)(F)F)n5)ncc4n3)CC2)C1 (some centres unmarked) [I-698]
> 0.2 µM	< 0.01 µM	Cn1c(=O)n(C2CCC(=O)NC2=O)c2cccc([C@H]3C[C@@H](COC4CN(C[C@H]5CC[C@H](n6cc(NC(=O)c7cnn8ccc(N9C[C@H]%10C[C@@H]9CO%10)nc78)c(C(F)F)n6)CC5)C4)C3)c21 (some centres unmarked) [I-597]
> 0.2 µM	> 0.2 µM	COc1cc2nn([C@H]3CC[C@H](CN4CC=C(c5ccc6c(c5)n(C)c(=O)n6C5CCC(=O)NC5=O)C(F)(F)C4)CC3)cc2cc1NC(=O)c1cccc(C(F)(F)F)n1 (some centres unmarked) [I-462]
> 0.2 µM	> 0.2 µM	Cn1c(=O)n(C2CCC(=O)NC2=O)c2cccc(N3CC(F)(F)C34CN(C[C@H]3CC[C@H](n5cc6cc(NC(=O)c7cccc(C(F)(F)F)n7)ccc6n5)CC3)C4)c21 (some centres unmarked) [I-499]
> 0.2 µM	< 0.01 µM	Cn1c(=O)n(C2CCC(=O)NC2=O)c2cccc([C@H]3C[C@H](CO[C@H]4CCN(C[C@H]5CC[C@H](n6cc(NC(=O)c7cnn8ccc(N9C[C@H]%10C[C@@H]9CO%10)nc78)c(C(F)F)n6)CC5)C[C@@H]4F)C3)c21 (some centres unmarked) [I-718]
> 0.2 µM	> 0.2 µM	CN(C[C@]1(O)CC[C@@H](n2cc(NC(=O)c3cnn4cccnc34)c(C(F)F)n2)CC1)C1CCN(c2cccc3c2n(C)c(=O)n3C2CCC(=O)NC2=O)CC1 (some centres unmarked) [I-487]
> 0.2 µM	> 0.2 µM	Cn1c(=O)n(C2CCC(=O)NC2=O)c2cccc(N3CC(C4CCN([C@H]5CC[C@H](n6cc(NC(=O)c7cnn8ccc(N9C[C@H]%10C[C@@H]9CO%10)nc78)c(C(F)F)n6)CC5)CC4(F)F)C3)c21 (some centres unmarked) [I-762]
> 0.2 µM	> 0.2 µM	Cn1c(=O)n(C2CCC(=O)NC2=O)c2cccc(N3CCC(C[C@H]4CC[C@H](n5cc6cc(NC(=O)c7cccc(C(F)(F)F)n7)ncc6n5)CC4)CC3)c21 (some centres unmarked) [I-777]
